Experimental data published in article PMC12090182, “Repurposing of the RIPK1-Selective Benzo[1,4]oxazepin-4-one Scaffold for the Development of a Type III LIMK1/2 Inhibitor” (ACS Chemical Biology, 2025).
Like-named read-outs stand apart in the source and are kept apart here.

What was measured:
LIMK1 = LIMK1 (Homo sapiens, UniProt P53667); experiment: Differential scanning fluorimetry assay for LIMK1/2; format: binding; settings: LIMK1, 10 μM compound
Experimental: The assay was performed according to a previously established protocol. […] The compounds to be tested were added to a final concentration of 10 μM. […] Data were analyzed with MxPro software.

LRRK2 = LRRK2 (Homo sapiens, UniProt Q5S007); experiment: NanoBRET cellular target engagement; format: cell-based; settings: LRRK2, HEK293T cells; read-out: EC50 (NanoBRET), Figure 4C
Experimental: (§1) The assay was performed as described previously.[31],[32] In brief, full-length LIMK1/2, RIPK1, BTK, and LRRK2 cloned in a frame in a NanoLuc-vector (Promega) were transfected into HEK293T cells (ATCC CRL-1573) using FuGENE HD (Promega, E2312), and proteins were allowed to express for 20 h. The serially diluted inhibitor and NanoBRET Kinase Tracer (Promega) used at the previously determined Tracer KD,app (Table S1) were pipetted into white 384-well plates (Greiner 781 207) using an ECHO 550 acoustic dispenser (Labcyte). The corresponding transfected cells were added and reseeded at a density of 2 × 10^5 cells/mL after trypsinization and resuspension in Opti-MEM without phenol red (Life Technologies). The system was allowed to equilibrate for 2 h at 37 °C and 5% CO2 prior to BRET measurements. To measure BRET, a NanoBRET Nano-Glo substrate and an extracellular NanoLuc inhibitor (Promega, N2160) were added as per the manufacturer's protocol, and filtered luminescence was measured on a PHERAstar plate reader (BMG Labtech) equipped with a luminescence filter pair (a 450 nm BP filter (donor) and a 610 nm LP filter (acceptor)). Competitive displacement data were then plotted using GraphPad Prism 10 software using a normalized three-parameter curve fit with the following equation: Y = 100/( [drawing 1] ).

BTK = target: T1, BTK (Homo sapiens, UniProt Q06187); experiment: NanoBRET cellular target engagement; format: cell-based; settings: HEK293T cells, read-out: EC50 (NanoBRET), Figure 4C
T1 construct: full-length LIMK1/2, RIPK1, BTK, and LRRK2 cloned in a frame in a NanoLuc-vector (Promega); host or cells: HEK293T
T1 sequence (Q06187 whole entry): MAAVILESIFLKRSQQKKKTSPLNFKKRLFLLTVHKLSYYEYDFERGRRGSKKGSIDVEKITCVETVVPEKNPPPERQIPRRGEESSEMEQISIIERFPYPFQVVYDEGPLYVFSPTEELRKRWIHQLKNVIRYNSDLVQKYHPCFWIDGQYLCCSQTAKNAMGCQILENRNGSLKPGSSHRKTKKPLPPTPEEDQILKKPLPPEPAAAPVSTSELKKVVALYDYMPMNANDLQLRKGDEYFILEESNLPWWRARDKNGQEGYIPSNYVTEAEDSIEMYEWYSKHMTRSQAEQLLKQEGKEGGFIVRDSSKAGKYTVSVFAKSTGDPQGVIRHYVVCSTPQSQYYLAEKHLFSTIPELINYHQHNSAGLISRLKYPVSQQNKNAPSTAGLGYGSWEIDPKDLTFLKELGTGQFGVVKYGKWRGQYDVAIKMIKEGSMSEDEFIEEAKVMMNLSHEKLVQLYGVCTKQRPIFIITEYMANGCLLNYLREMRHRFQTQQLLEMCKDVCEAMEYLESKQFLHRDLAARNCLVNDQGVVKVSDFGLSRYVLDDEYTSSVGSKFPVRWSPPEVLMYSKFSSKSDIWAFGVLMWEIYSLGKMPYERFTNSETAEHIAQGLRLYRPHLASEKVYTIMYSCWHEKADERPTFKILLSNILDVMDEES
Experimental: as §1

EGFR(L858R) [1] = target: T2, EGFR(L858R) (Homo sapiens, UniProt P00533, L858R); experiment: biochemical; format: binding; settings: 1000 nM, read-out: Percent Control
T2 sequence (P00533 25-1210 L858R): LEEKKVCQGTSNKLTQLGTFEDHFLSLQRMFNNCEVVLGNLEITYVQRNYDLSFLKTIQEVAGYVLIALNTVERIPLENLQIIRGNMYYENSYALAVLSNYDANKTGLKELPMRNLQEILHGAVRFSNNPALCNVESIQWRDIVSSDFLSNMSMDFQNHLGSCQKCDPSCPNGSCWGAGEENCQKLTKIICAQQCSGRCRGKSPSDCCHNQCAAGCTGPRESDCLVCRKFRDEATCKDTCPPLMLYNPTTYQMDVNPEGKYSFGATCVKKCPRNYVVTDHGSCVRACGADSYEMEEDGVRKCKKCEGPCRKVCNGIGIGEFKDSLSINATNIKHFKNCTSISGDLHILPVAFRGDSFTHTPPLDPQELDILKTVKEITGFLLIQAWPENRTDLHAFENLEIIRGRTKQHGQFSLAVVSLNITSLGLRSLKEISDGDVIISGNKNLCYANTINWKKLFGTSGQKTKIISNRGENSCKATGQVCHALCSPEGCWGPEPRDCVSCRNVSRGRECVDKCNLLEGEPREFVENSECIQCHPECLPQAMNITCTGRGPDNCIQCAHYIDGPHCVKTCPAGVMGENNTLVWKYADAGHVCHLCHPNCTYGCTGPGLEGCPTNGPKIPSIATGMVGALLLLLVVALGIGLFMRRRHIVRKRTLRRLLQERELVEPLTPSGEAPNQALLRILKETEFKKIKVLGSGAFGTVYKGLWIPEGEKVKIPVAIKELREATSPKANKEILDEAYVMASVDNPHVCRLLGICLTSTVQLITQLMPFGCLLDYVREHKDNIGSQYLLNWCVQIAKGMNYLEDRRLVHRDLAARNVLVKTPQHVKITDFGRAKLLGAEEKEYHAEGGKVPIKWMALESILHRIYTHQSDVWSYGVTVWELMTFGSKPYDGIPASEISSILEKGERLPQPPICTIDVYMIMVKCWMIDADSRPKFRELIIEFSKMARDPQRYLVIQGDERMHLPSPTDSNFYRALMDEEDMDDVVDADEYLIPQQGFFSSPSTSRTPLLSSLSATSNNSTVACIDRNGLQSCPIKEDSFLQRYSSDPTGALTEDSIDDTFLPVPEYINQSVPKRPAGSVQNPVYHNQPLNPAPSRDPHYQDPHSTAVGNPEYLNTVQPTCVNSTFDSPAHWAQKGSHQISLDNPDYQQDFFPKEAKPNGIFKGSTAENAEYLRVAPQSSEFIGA

[2] = target: 468 kinases including some pathogenic mutants (Homo sapiens, UniProt Q9BRS2); experiment: biochemical; format: binding; settings: RIOK1 (Entrez RIOK1), 100 nM; read-out: Percent Control
[3] = target: 468 kinases including some pathogenic mutants (Homo sapiens, UniProt Q07002); experiment: biochemical; format: binding; settings: read-out: Percent Control
[4] = target: 468 kinases including some pathogenic mutants (Homo sapiens, UniProt P54760); experiment: biochemical; format: binding; settings: EPHB4 (Entrez EPHB4), 100 nM; read-out: Percent Control
[5] = target: 468 kinases including some pathogenic mutants (Homo sapiens, UniProt Q13554); experiment: biochemical; format: binding; settings: CAMK2B (Entrez CAMK2B), 100 nM; read-out: Percent Control
[6] = target: 468 kinases including some pathogenic mutants (Homo sapiens, UniProt P19525); experiment: biochemical; format: binding; settings: PRKR (Entrez EIF2AK2), 1000 nM; read-out: Percent Control
[7] = target: 468 kinases including some pathogenic mutants (Homo sapiens, UniProt Q99640); experiment: biochemical; format: binding; settings: PKMYT1 (Entrez PKMYT1), 100 nM; read-out: Percent Control
BRAF(V600E) = BRAF(V600E) (Homo sapiens, UniProt P15056, V600E); experiment: biochemical; format: binding; settings: compound concentration 100 nM; Entrez BRAF; read-out: Percent Control
Sequence of BRAF(V600E) (P15056 whole entry V600E): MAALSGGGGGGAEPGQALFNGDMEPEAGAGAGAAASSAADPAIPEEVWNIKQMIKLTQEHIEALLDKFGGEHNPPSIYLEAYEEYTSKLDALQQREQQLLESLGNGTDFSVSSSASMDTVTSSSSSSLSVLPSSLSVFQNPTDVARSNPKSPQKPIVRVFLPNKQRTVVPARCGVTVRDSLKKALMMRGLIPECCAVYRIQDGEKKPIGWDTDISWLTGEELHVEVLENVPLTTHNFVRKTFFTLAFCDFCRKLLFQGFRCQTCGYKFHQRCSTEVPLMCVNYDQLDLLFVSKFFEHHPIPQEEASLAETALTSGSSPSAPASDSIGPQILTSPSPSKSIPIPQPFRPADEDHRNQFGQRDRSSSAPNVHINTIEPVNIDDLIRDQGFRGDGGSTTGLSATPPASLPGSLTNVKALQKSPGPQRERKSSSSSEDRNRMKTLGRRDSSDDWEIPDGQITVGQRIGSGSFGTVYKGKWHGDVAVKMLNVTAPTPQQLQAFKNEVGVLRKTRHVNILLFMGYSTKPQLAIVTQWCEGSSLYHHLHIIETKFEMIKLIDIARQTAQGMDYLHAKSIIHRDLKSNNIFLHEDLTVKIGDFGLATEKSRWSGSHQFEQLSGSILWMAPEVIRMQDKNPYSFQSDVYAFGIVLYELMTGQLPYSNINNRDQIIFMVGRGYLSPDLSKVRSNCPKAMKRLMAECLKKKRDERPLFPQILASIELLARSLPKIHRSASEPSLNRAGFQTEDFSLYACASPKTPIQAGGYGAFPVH

FLT3(N841I) = FLT3(N841I) (Homo sapiens, UniProt P36888, N841I); experiment: biochemical; format: binding; settings: 1000 nM, read-out: Percent Control
KIT(V559D) = KIT(V559D) (Homo sapiens, UniProt P10721, V559D); experiment: biochemical; format: binding; settings: 1000 nM, read-out: Percent Control
Sequence of KIT(V559D) (P10721 26-976 V559D): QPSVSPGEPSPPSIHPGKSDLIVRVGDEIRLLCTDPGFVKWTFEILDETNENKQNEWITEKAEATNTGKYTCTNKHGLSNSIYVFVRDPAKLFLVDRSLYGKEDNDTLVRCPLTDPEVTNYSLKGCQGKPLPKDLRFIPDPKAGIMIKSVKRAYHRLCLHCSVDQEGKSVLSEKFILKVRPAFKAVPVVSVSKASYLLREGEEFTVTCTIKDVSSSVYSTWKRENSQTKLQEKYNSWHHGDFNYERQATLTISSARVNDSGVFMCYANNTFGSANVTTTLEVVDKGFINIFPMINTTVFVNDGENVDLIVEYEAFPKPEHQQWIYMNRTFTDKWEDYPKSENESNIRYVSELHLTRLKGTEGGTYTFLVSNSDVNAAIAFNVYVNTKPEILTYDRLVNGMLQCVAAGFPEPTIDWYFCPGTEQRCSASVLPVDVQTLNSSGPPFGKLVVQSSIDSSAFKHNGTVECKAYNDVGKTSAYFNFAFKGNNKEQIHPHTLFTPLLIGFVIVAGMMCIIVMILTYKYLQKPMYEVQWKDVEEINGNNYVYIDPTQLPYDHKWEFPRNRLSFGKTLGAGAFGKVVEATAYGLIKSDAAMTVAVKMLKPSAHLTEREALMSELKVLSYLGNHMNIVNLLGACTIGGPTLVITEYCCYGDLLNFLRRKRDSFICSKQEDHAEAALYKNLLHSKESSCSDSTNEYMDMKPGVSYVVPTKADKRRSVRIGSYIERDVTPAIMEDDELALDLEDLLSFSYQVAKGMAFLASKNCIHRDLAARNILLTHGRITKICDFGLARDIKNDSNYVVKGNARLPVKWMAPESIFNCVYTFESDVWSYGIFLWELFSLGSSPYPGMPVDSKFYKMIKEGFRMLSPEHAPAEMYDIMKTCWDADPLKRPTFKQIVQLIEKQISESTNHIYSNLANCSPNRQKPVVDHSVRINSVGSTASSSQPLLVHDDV

[8] = target: ABL1(F317I)-nonphosphorylated (Homo sapiens, UniProt P00519, F317I); experiment: biochemical; format: binding; settings: read-out: Percent Control
BTK2 = BTK2 (Homo sapiens, UniProt Q06187); experiment: scanMAX KINOMEscan (Eurofins); format: binding
Sequence of BTK2 (Q06187 whole entry): as the sequence (Q06187 whole entry) above

[9] = target: ABL1(H396P)-nonphosphorylated (Homo sapiens, UniProt P00519, H396P); experiment: biochemical; format: binding; settings: read-out: Percent Control
ALK(C1156Y) = ALK(C1156Y) (Homo sapiens, UniProt Q9UM73, C1156Y); experiment: biochemical; format: binding; settings: 1000 nM, read-out: Percent Control
RET(M918T) = RET(M918T) (Homo sapiens, UniProt P07949, M918T); experiment: biochemical; format: binding; settings: 1000 nM, read-out: Percent Control
Sequence of RET(M918T) (P07949 29-1114 M918T): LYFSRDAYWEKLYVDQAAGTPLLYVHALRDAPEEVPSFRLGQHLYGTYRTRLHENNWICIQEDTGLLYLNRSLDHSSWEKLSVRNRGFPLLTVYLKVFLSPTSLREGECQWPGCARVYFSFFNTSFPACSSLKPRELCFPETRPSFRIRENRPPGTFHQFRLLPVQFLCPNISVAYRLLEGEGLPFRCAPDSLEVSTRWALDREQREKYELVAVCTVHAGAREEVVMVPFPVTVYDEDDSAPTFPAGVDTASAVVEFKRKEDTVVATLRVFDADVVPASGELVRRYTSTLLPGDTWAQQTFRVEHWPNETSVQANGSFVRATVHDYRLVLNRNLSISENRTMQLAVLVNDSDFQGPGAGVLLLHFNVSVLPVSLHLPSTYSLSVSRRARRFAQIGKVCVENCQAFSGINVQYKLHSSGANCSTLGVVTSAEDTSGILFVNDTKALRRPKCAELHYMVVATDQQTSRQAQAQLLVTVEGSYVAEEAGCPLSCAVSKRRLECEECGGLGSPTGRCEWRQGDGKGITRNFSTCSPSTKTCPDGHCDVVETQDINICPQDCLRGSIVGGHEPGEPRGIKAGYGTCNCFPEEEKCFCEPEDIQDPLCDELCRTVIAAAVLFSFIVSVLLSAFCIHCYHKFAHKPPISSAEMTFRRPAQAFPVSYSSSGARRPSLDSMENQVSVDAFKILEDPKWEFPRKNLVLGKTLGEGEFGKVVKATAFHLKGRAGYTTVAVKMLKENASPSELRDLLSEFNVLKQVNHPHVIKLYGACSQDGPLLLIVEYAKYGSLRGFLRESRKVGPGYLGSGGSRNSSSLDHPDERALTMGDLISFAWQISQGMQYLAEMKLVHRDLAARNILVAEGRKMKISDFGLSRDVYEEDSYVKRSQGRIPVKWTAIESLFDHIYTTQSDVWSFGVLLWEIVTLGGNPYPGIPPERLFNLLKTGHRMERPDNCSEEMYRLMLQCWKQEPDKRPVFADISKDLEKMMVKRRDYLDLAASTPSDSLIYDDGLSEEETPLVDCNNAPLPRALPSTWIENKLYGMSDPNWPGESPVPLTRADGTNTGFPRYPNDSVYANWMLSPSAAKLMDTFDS

KIT(V559D,T670I) = KIT(V559D,T670I) (Homo sapiens, UniProt P10721, T670I/V559D); experiment: biochemical; format: binding; settings: compound concentration 100 nM; Entrez KIT; read-out: Percent Control
Sequence of KIT(V559D,T670I) (P10721 26-976 V559D/T670I): as the sequence (P10721 26-976 V559D) above, with T645I counted along it

EGFR(L858R) [10] = target: T2, EGFR(L858R); experiment: biochemical; format: binding; settings: compound concentration 100 nM; Entrez EGFR; read-out: Percent Control
KIT(D816V) = KIT(D816V) (Homo sapiens, UniProt P10721, D816V); experiment: biochemical; format: binding; settings: compound concentration 100 nM; Entrez KIT; read-out: Percent Control
Sequence of KIT(D816V) (P10721 26-976 D816V): as the sequence (P10721 26-976 V559D) above, with D534V, D791V counted along it

PIK3CA(I800L) = PIK3CA(I800L) (Homo sapiens, UniProt P42336, I800L); experiment: biochemical; format: binding; settings: read-out: Percent Control
[11] = target: ABL1(T315I)-phosphorylated (Homo sapiens, UniProt P00519, T315I); experiment: biochemical; format: binding; settings: read-out: Percent Control
KIT(V559D,V654A) = KIT(V559D,V654A) (Homo sapiens, UniProt P10721, V559D/V654A); experiment: biochemical; format: binding; settings: read-out: Percent Control
Sequence of KIT(V559D,V654A) (P10721 26-976 V559D/V654A): as the sequence (P10721 26-976 V559D) above, with V629A counted along it

SMILES: CN1C(=O)[C@@H](N2CCc3c(C(N)=O)nn(Cc4ccccc4)c3C2=O)COc2ccccc21 [Compound 11]
- ΔTM (stabilization in the DSF assay) (LIMK1): inactive

SMILES: CN1C(=O)[C@@H](N2CCc3c(nn(Cc4ccccc4)c3C(N)=O)C2=O)COc2cc(Cl)ccc21 [Compound 10, (S)-2-benzyl-6-(8-chloro-5-methyl-4-oxo-2,3,4,5-tetrahydrobenzo[b][1,4]oxazepin-3-yl)-7-oxo-4,5,6,7-tetrahydro-2H-pyrazolo[3,4-c]pyridine-3-carboxamide]
- EC50 (LRRK2): > 50 µM
- EC50 (BTK): > 50 µM
- remaining activity at 1 µM (EGFR(L858R) [1]): 100%
- remaining activity at 0.1 µM [2]: 63%
- remaining activity at 0.1 µM [3]: 100%
- remaining activity at 0.1 µM [4]: 72%
- remaining activity at 0.1 µM [5]: 67%
- remaining activity at 1 µM [6]: 100%
- remaining activity at 0.1 µM [7]: 90%
- remaining activity at 0.1 µM (BRAF(V600E)): 100%
- remaining activity at 1 µM (FLT3(N841I)): 96%
- remaining activity at 1 µM (KIT(V559D)): 85%
- remaining activity at 1 µM [8]: 69%
- remaining binding at 1 µM (BTK2; BTK2, 1 μM, read-out: POC (Top Hits @ 1 μM)): 55%
- remaining binding at 0.1 µM (BTK2; BTK (Entrez BTK), 100 nM, read-out: Percent Control): 62%
- remaining binding at 1 µM (BTK2; BTK, 1000 nM, read-out: Percent Control): 55%
- remaining activity at 1 µM [9]: 66%
- remaining activity at 1 µM (ALK(C1156Y)): 82%
- remaining activity at 1 µM (RET(M918T)): 96%
- remaining activity at 0.1 µM (KIT(V559D,T670I)): 92%
- remaining activity at 0.1 µM (EGFR(L858R) [10]): 100%
- remaining activity at 0.1 µM (KIT(D816V)): 100%
- remaining activity at 1 µM (PIK3CA(I800L)): 89%
- remaining activity at 1 µM [11]: 99%
- remaining activity at 1 µM (KIT(V559D,V654A)): 92%
